pEC50, pKi: −log10 of the molar value. Like-named read-outs stand apart in the source and are kept apart here.
Assays:
δOR [1] = biological target: T1, δOR (Mus musculus, UniProt P32300); test: GloSensor cAMP inhibition assay (forskolin-induced cAMP) in HEK 293 cells; assay type: cell-based
T1 construct: FLAG; expressed in transfected cells; host or cells: HEK 293

κOR [2] = biological target: T2, κOR (Homo sapiens, UniProt P41145); design: method as in PMID 28339199; details: ref [36]; read-out: potency at the κOR; cited from earlier work
κOR [3] = biological target: T2, κOR; design: method as in PMID 28339199; details: ref [36]; read-out: affinity at the κOR; cited from earlier work
[4] = cited from earlier work
δOR [5] = biological target: T3, δOR (Homo sapiens, UniProt P41143); design: method as in PMID 26507558, PMID 20850307, doi:10.1016/S0021-5198(19)49890-9; details: ref [14],[18],[19]; cited from earlier work
δOR [6] = biological target: T3, δOR; test: Radioligand binding assay with [3H]DPDPE
δOR [7] = biological target: T1, δOR; test: Assessment of allosteric modulation of Leu-enkephalin in δOR glosensor cAMP assay; assay type: cell-based
δOR [8] = biological target: T3, δOR; test: PathHunter β-arrestin 2 recruitment, CHO-human δOR cells; assay type: cell-based; details: read-out: β-ARR2 potency (pEC50) (converted)
κOR [9] = biological target: T2, κOR; test: GloSensor cAMP inhibition assay (forskolin-induced cAMP); assay type: cell-based; details: read-out: cAMP Potency (pIC50 ± SEM) (converted)
µOR [10] = biological target: T4, µOR (Homo sapiens, UniProt P35372); test: Radioligand binding assay with [3H]DAMGO; details: read-out: Affinity (pKi ± SEM) (converted)
µOR [11] = biological target: µOR (Mus musculus, UniProt P42866); test: GloSensor cAMP inhibition assay (forskolin-induced cAMP) in HEK 293 cells; assay type: cell-based; details: read-out: cAMP Potency (pIC50 ± SEM) (converted)
κOR [12] = biological target: T2, κOR; test: Radioligand binding assay with [3H]U69,593; details: read-out: Affinity (pKi ± SEM) (converted)
δOR [13] = biological target: T3, δOR; test: PathHunter β-arrestin 1 recruitment, U2OS cells (also library screen); assay type: cell-based; details: read-out: β-ARR1 potency (pEC50) (converted)
µOR [14] = biological target: T4, µOR; design: method as in PMID 27533032; details: ref [32]; read-out: affinity at the µOR; cited from earlier work
[15] = Table 2, three or more independent trials, read-out: pIC50 ± SEM to inhibit cAMP signaling at δOR (converted)

T1 sequence (P32300 whole entry): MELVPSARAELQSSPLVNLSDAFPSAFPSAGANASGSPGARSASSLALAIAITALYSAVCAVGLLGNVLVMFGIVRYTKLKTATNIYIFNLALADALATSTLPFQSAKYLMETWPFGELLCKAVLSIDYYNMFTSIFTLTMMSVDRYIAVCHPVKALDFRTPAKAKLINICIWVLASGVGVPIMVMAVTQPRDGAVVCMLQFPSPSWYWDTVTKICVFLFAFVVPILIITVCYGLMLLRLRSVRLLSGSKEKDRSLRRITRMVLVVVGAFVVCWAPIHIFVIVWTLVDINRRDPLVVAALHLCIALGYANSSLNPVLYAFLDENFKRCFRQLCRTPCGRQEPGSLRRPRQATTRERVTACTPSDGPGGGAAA
T3 sequence (P41143 whole entry): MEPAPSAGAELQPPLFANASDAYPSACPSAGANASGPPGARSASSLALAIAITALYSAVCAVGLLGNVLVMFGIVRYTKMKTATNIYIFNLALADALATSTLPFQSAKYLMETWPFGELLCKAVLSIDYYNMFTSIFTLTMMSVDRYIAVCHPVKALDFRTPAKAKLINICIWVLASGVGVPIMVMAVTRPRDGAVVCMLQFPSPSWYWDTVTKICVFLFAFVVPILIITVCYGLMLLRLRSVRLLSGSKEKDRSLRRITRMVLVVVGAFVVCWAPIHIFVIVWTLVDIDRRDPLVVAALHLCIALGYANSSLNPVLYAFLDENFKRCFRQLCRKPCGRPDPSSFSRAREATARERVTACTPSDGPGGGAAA
T2 sequence (P41145 whole entry): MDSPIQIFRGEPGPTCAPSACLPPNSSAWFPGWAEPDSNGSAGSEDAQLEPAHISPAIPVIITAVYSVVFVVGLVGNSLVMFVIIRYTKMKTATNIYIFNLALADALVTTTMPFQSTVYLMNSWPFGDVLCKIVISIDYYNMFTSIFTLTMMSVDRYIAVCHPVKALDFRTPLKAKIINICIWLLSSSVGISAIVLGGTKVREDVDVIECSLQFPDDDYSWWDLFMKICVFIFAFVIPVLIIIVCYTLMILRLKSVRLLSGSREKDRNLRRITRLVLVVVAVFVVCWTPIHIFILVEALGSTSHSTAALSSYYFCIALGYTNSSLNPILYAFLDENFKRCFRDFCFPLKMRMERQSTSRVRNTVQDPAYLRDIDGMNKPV
T4 sequence (P35372 whole entry): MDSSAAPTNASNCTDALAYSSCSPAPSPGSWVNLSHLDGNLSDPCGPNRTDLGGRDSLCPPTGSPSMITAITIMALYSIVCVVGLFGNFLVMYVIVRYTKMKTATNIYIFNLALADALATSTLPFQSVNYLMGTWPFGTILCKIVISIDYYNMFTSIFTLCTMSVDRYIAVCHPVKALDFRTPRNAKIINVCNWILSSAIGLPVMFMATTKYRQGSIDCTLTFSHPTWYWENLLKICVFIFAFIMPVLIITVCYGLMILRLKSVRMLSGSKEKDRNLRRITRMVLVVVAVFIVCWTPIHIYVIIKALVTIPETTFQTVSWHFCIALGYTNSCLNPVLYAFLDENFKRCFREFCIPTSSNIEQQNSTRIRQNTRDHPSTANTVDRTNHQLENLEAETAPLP
µOR (Mus musculus, UniProt P42866), sequence (P42866 whole entry): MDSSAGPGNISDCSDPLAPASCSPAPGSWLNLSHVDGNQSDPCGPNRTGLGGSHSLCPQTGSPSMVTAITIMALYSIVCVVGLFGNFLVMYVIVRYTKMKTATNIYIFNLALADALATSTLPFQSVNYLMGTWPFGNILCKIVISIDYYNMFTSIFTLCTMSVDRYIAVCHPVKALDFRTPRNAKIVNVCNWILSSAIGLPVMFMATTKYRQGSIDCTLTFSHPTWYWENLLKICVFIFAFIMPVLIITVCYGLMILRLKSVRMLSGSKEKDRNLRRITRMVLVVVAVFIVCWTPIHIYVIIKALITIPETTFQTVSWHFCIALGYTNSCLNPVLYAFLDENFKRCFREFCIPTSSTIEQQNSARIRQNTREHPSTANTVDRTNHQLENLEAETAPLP

COc1cccc(/C=N/NC(=O)c2cc(-c3ccco3)n[nH]2)c1O [Compound 12]
IC50 (δOR [1]; [15]): 7.94 µM

COc1cccc(/C=N/NC(=O)c2cc(-c3ccc(Br)s3)n[nH]2)c1O [Compound 14]
IC50 (δOR [1]; [15]): 10 µM

COc1cccc(/C=N/NC(=O)c2cc(-c3ccc(Cl)s3)n[nH]2)c1O [Compound 13]
IC50 (δOR [1]; [15]): 7.94 µM

O=C(N/N=C/c1ccccc1)c1cc(-c2cccs2)n[nH]1 [Compound 2]
IC50 (δOR [1]; [15]): 12.6 µM

CC(c1cccc(O)c1)N(C)CCc1nccn1C (stereo not drawn) [compound 81]
pEC50 (κOR [2]): 6.28
pKi (κOR [3]): 6.80

CN1CCC23Cc4nc5ccccc5cc4CC2(O)C1Cc1ccc(O)cc13 (stereo not drawn) [KNT-127]
convulsions ([4]; ref [14],[18],[19]): do not induce convulsions
Emax for β-arrestin 2 recruitment (δOR [5]): 70%

CN(C)C(=O)c1ccc(C(=C2CCN(Cc3cncs3)CC2)c2cccc(C(N)=O)c2)cc1 [PN6047]
proconvulsant effects ([4]; ref [17]): not proconvulsant

COc1cc(/C=N/NC(=O)c2cc(-c3cccs3)n[nH]2)cc(OC)c1OC [Compound 8]
IC50 (δOR [1]; [15]): 10 µM

COc1cccc(/C=N/NC(=O)c2cc(-c3cccs3)n[nH]2)c1 [Compound 9]
IC50 (δOR [1]; [15]): 15.8 µM

CN1CCC2(c3cccc(O)c3)Cc3nc4ccccc4cc3CC2C1 (stereo not drawn) [TAN-67]
Emax for β-arrestin 2 recruitment (δOR [5]): 30%

COc1cc(/C=N/NC(=O)c2cc(-c3ccc(C)s3)n[nH]2)ccc1O [Compound 15]
IC50 (δOR [1]; [15]): 10 µM

Cc1cccc(/C=N/NC(=O)c2cc(-c3cccs3)n[nH]2)c1 [Compound 3]
IC50 (δOR [1]; [15]): 7.94 µM

COc1cccc(C=NNC(=O)c2cc(-c3cccs3)n[nH]2)c1O [Compound 1, N’-(2-hydroxy-3-methoxybenzylidene)-3-(2-thienyl)-1H-pyrazole-5-carbohydrazide]
affinity and potency at δOR stronger than for µOR and κOR (selectivity) (δOR [6]; δOR over µOR and κOR): roughly 10 fold
Ki (δOR [6]; δOR, read-out: Affinity (pKi ± SEM) (converted)): 1.15 µM
modulation of Leu-enkephalin activity in cAMP glosensor assay (δOR [7]; Leu-enkephalin co-incubated with 0.1-10 µM compound 1): negative allosteric modulator (NAM)-agonist
β (change in Leu-enkephalin Emax) (δOR [7]; Leu-enkephalin co-incubated with increasing concentrations of compound 1): 1
EC50 (δOR [8]): > 10 µM
IC50 (κOR [9]): > 10 µM
Ki (µOR [10]): > 10 µM
IC50 (δOR [1]; [15]): 1 µM
IC50 (δOR [1]; δOR, read-out: cAMP Potency (pIC50 ± SEM) (converted)): 0.977 µM
IC50 (µOR [11]): > 10 µM
Ki (κOR [12]): > 10 µM
EC50 (δOR [13]): > 10 µM

CCOc1cccc(/C=N/NC(=O)c2cc(-c3ccco3)n[nH]2)c1O [Compound 5]
IC50 (δOR [1]; [15]): 10 µM

C[C@H](Cc1cccs1)NC(=O)NC[C@H](Cc1ccc(O)cc1)N(C)C [PZM21]
pKi (µOR [14]): 9.00

O=C(N/N=C/c1ccc(Cl)cc1)c1cc(-c2cccs2)n[nH]1 [Compound 4]
IC50 (δOR [1]; [15]): 12.6 µM

CCN(CC)C(=O)c1ccc([C@H](c2cccc(N)c2)N2C[C@@H](C)N(Cc3ccc(F)cc3)C[C@@H]2C)cc1 [AZD2327]
proconvulsant effects ([4]; ref [8]): proconvulsant effects

O=C(N/N=C/c1ccc(O)c(O)c1)c1cc(-c2cccs2)n[nH]1 [Compound 6]
IC50 (δOR [1]; [15]): 12.6 µM

COc1ccc(/C=N/NC(=O)c2cc(-c3ccc(C)s3)n[nH]2)cc1OC [Compound 11]
IC50 (δOR [1]; [15]): 3.98 µM

CCOc1cccc(/C=N/NC(=O)c2cc(-c3ccc(Cl)s3)n[nH]2)c1O [Compound 10]
IC50 (δOR [1]; [15]): 7.94 µM
